Test results from US20080306166A1, “Compositions and Methods For Treatment of Disorders of Protein Aggregation” (priority 2004, published 2008).
“Also recorded” adds a separate entry of the source. Marks after values point to notes of the source that are not given here.

Experiments:
TgCRND8 mice [1] = test: Morris Water Maze spatial reference memory test in TgCRND8 mice; format: in vivo, mouse
Description: Mice. […] This initial dosage was chosen based upon the dosage of myo-cyclohexanehexyl (6-18 grams/day/adult or 86-257 mg/Kg/day) that is typically administered to human patients for various psychiatric disorders. […] A cohort of animals (n=10 mice per treatment arm) entered the study at five months of age, and outcomes were then analyzed after one month of treatment. The body weight, coat characteristics and in cage behaviour were monitored. Mannitol was used as a negative control for potential alterations in caloric intake. All experiments were performed according to the Canadian Council on Animal Care guidelines. Behavioural tests: Morris Water Maze testing was performed as previously described. After non-spatial pre-training, mice underwent place discrimination training for 5 days with 4-trials per day, followed by a cued visible platform to rule out general motivational, learning deficits and motor problems, and a probe trial to evaluate memory. […] Open field test for motor activity was preformed as described previously. Duration of walking, pausing and grooming were analyzed as indices of spontaneous locomotor activity. Sensorimotor function was examined with an Economex™ accelerating rotarod (Columbus Instruments, Columbus, Ohio), as described elsewhere. The rod was set to accelerate at a rate of 0.2 r.p.m./s, from an initial, constant speed of 5 r.p.m. Latency to fall was recorded in four daily trials, conducted at 30 min intervals. All mice were trained for seven days before testing. The test day performance score for each animal was obtained by summing its latency to fall over the four trials. Cerebral amyloid burden. Brains were removed and one hemisphere was fixed in 4% paraformaldehyde and embedded in paraffin wax in the mid sagittal plane. To generate sets of systematic uniform random sections, 5 μm serial sections were collected across the entire hemisphere. Sets of sections at 50 μm intervals were used for analyses (10-14 sections/set). Plaques were identified after antigen retrieval with formic acid, and incubation with primary anti-AD antibody (Dako M-0872), followed by secondary antibody (Dako StreptABCcomplex/horseradish kit). End products were visualized with DAB and were counter-stained with luxol fast blue. Amyloid plaque burden was assessed with Leco IA-3001 image analysis software interfaced with Leica microscope and Hitachi KP-M1U CCD video camera. Openlab imaging software (Improvision, Lexington, Mass.) was then used to convert micrographs to binary images for plaque number and plaque area determinations. Vascular amyloid burden was defined as amyloid originating from or surrounding blood vessels and was analysed similarly. Plasma and Cerebral Aβ Content. Hemi-brain samples were homogenized in a buffered sucrose solution, followed by either 0.4% diethylamine/100 mM NaCl for soluble Aβ levels or cold formic acid for the isolation of total Aβ. After neutralization, the samples were diluted and analyzed for Aβ40 and Aβ42 using commercially available kits (BIOSOURCE International). Each hemisphere was analyzed intriplicate and the mean values ±SEM reported. Western blot analyses were performed on all fractions using urea gels for Aβ species analyses. Aβ was detected using 6E10 (BIOSOURCE International) and Enhanced Chemiluminenscence (Amersham). Gliosis Quantitation. Five randomly selected, evenly spaced, sagittal sections were collected from paraformaldehyde-fixed and frozen hemispheres of treated and control mice. […]

Aβ oligomers = test: IP/Western blot of Aβ oligomers in 7PA2 conditioned medium; format: cell-based, human
Description: (§1) Preparation of conditioned media: CHO— or 7PA2 cells were grown to ˜90% confluency. The cells were washed 1× in serum-free DMEM, then incubated overnight (˜15 hrs) in 4 ml/10 cm dish in serum-free DMEM, pen/strep, 1-glutamine with/without AZD-103. The following day, the conditioned media (CM) was collected, spun at 1000×g and treated with complete protease inhibitors (in mg/ml 1 leupeptin, 1 pepstatin, 0.1 aprotinin, 40 EDTA, and 2 mM 1/10 phenantroline) for biochemistry experiments or cell culture compatible protease inhibitors (Sigma P1860 1:1000) for electrophysiology experiments. The CM was stored at −80° C. until sufficient volumes were collected to complete a “batch”—typically ˜300 ml. […] The resulting concentrate was pooled, aliquoted in 1 ml fractions, and stored at −80° C. […] Therefore, for any given set of experiments (i.e. dose response curve, time curve, etc), a single batch is prepared and compared to 7PA2 alone within that batch.
IP/Western blots: 8 ml of 7PA2 CM were precleared with 40 μl of protein A agarose for 30 min. The beads were spun down, and […] of the polyclonal anti-Aβ antibody R1282 was added to the supernatant with an additional 40 μl of protein A agarose. These samples were nutated at 4° C. overnight. The beads were washed with a series of buffers 0.5 STEN (sodium chloride, tris, EDTA, NP-40), SDS STEN, STEN. 2× tricine sample buffer was added to the washed beads, which were then boiled, centrifuged, and the resulting supernatant loaded onto 10-20% tricine gels. The proteins were then transferred to nitrocellulose, and probed with the anti-Aβ antibody 6E10.

TgCRND8 mice [2] = test: Cerebral amyloid plaque burden (anti-Aβ immunostaining, image analysis); format: in vivo, mouse; conditions: TgCRND8 mice
Description: Mice. […] This initial dosage was chosen based upon the dosage of myo-cyclohexanehexyl (6-18 grams/day/adult or 86-257 mg/Kg/day) that is typically administered to human patients for various psychiatric disorders. […] A cohort of animals (n=10 mice per treatment arm) entered the study at five months of age, and outcomes were then analyzed after one month of treatment. The body weight, coat characteristics and in cage behaviour were monitored. Mannitol was used as a negative control for potential alterations in caloric intake. All experiments were performed according to the Canadian Council on Animal Care guidelines. Behavioural tests: Morris Water Maze testing was performed as previously described. After non-spatial pre-training, mice underwent place discrimination training for 5 days with 4-trials per day, followed by a cued visible platform to rule out general motivational, learning deficits and motor problems, and a probe trial to evaluate memory. […] Open field test for motor activity was preformed as described previously. Duration of walking, pausing and grooming were analyzed as indices of spontaneous locomotor activity. Sensorimotor function was examined with an Economex™ accelerating rotarod (Columbus Instruments, Columbus, Ohio), as described elsewhere. The rod was set to accelerate at a rate of 0.2 r.p.m./s, from an initial, constant speed of 5 r.p.m. Latency to fall was recorded in four daily trials, conducted at 30 min intervals. All mice were trained for seven days before testing. The test day performance score for each animal was obtained by summing its latency to fall over the four trials. Cerebral amyloid burden. Brains were removed and one hemisphere was fixed in 4% paraformaldehyde and embedded in paraffin wax in the mid sagittal plane. To generate sets of systematic uniform random sections, 5 μm serial sections were collected across the entire hemisphere. Sets of sections at 50 μm intervals were used for analyses (10-14 sections/set). Plaques were identified after antigen retrieval with formic acid, and incubation with primary anti-AD antibody (Dako M-0872), followed by secondary antibody (Dako StreptABCcomplex/horseradish kit). End products were visualized with DAB and were counter-stained with luxol fast blue. Amyloid plaque burden was assessed with Leco IA-3001 image analysis software interfaced with Leica microscope and Hitachi KP-M1U CCD video camera. Openlab imaging software (Improvision, Lexington, Mass.) was then used to convert micrographs to binary images for plaque number and plaque area determinations. Vascular amyloid burden was defined as amyloid originating from or surrounding blood vessels and was analysed similarly. Plasma and Cerebral Aβ Content. Hemi-brain samples were homogenized in a buffered sucrose solution, followed by either 0.4% diethylamine/100 mM NaCl for soluble Aβ levels or cold formic acid for the isolation of total Aβ. After neutralization, the samples were diluted and analyzed for Aβ40 and Aβ42 using commercially available kits (BIOSOURCE International). Each hemisphere was analyzed intriplicate and the mean values ±SEM reported. Western blot analyses were performed on all fractions using urea gels for Aβ species analyses. Aβ was detected using 6E10 (BIOSOURCE International) and Enhanced Chemiluminenscence (Amersham). Gliosis Quantitation. Five randomly selected, evenly spaced, sagittal sections were collected from paraformaldehyde-fixed and frozen hemispheres of treated and control mice. Sections were immunolabelled for astrocytes with anti-rat GFAP IgG2a, (Dako; diluted 1:50) and for microglia with anti-rat CD68 IgG2b (Dako; 1:50).

rats = test: Alternating Lever Cyclic Ratio (ALCR) test after ICV Aβ oligomers; format: in vivo, rat
Description: The Aβ oligomers are naturally produced by cells transfected with genes that over-produce the amyloid precursor protein (APP). […] In addition, oligomeric Aβ is extracted from brain homogenate taken from transgenic mice (Tg2576) transfected with the Swedish APP mutation. […] These purified oligomeric forms of Aβ, at physiological concentrations relevant to those found in AD, are injected into the rat's lateral ventricle through an indwelling cannula while the animals are awake and moving. Two hours after injection the rats are tested under sensitive cognitive assay. The assay, the Alternating Lever Cyclic Ratio (ALCR) test, has proven to be much more sensitive than previously published methods for measuring drug effects on cognitive function. In this task, rats must learn a complex sequence of lever-pressing requirements in order to earn food reinforcement in a two-lever experimental chamber. Subjects must alternate between two levers by switching to the other lever after pressing the first lever enough to get food reward. The exact number of presses required for each food reward changes, first increasing from 2 responses per food pellet up to 56 presses per food pellet, then decreasing back to 2 responses per pellet. Intermediate values are based on the quadratic function, x^2−x. One cycle is an entire ascending and descending sequence of these lever press requirements (e.g., 2, 6, 12, 20, 30, 42, 56, 56, 42, 30, 20, 12, 6, and 2 presses per food reward). Six such full cycles are presented during each daily session. […] Oligomeric Aβ: […] These cells secrete oligomeric Aβ into the culture medium (CM) at physiological levels. Aβ oligomers was also derived from Tg2576 mouse brain and purified by size exclusion chromatography. Samples of oligomeric Aβ were characterized by Western Blot Analysis. Appropriate control compounds were produced and tested for each active Aβ oligomeric configuration. Rats: Forty (40) rats were trained under ALCR for approximately 3 months until their error rates are stable. Training sessions were conducted 5 days each week. Surgery: After training, all rats received a single 28 ga. cannula that was permanently affixed to the skull, and aimed at the lateral ventricle (divided equally between left and right). Rats were allowed 5 days to recover from surgery. Administration: In vivo administration of AZD103 to rats was performed by dissolving AZD103 into drinking water. Different concentrations were prepared, and the average daily water intake used to target specific average daily dose levels. These dose levels were therefore approximate. Testing: AZD 103 was tested against Aβ oligomers known to disrupt cognitive function. […] AZD 103 was incubated with the injectate medium containing Aβ oligomers prior to assessing it's affect on ALCR. […] Treatments were assessed in the following order: • 1. […] ICV AZD 103 alone • 3. […] Error Rate Analysis: All error rates under AZD 103 were compared to baseline error rates consisting of at least 3-4 non-treatment days prior to injections. This is a repeated measure within subject design that produces maximum power to detect changes in the error rates. Histology: Upon completion of the study, 20 rat brains were banked. The other 20 brains were evaluated histologically for inflammation, gliosis and cannula placement. […] Serial hematoxylin and eosin stained sections were used to evaluate for cannula placement. These same hemibrains were evaluated for inflammation (neutrophils/lymphocytes/macrophages), gliosis (microglial and astrocytic) and neuron loss using standard hematoxylin and eosin staining as well as specific markers for gliosis as needed.

Aβ42 = molecular target: T1, Aβ42 (Homo sapiens, UniProt P05067); test: Plasma Aβ42 levels; format: in vivo, mouse; conditions: TgCRND8 mice, 28 days of therapy at five months of age
T1 construct: analyzed for Aβ40 and Aβ42 using commercially available kits; from tissue; host or cells: TgCRND8 transgenic mice: hemi-brain (A3) and plasma (A5)
Description: (§2) Mice. […] This initial dosage was chosen based upon the dosage of myo-cyclohexanehexyl (6-18 grams/day/adult or 86-257 mg/Kg/day) that is typically administered to human patients for various psychiatric disorders. […] A cohort of animals (n=10 mice per treatment arm) entered the study at five months of age, and outcomes were then analyzed after one month of treatment. The body weight, coat characteristics and in cage behaviour were monitored. Mannitol was used as a negative control for potential alterations in caloric intake. All experiments were performed according to the Canadian Council on Animal Care guidelines. Behavioural tests: Morris Water Maze testing was performed as previously described. […] Duration of walking, pausing and grooming were analyzed as indices of spontaneous locomotor activity. […] Latency to fall was recorded in four daily trials, conducted at 30 min intervals. […] Amyloid plaque burden was assessed with Leco IA-3001 image analysis software interfaced with Leica microscope and Hitachi KP-M1U CCD video camera. […] Vascular amyloid burden was defined as amyloid originating from or surrounding blood vessels and was analysed similarly. […] After neutralization, the samples were diluted and analyzed for Aβ40 and Aβ42 using commercially available kits (BIOSOURCE International). Each hemisphere was analyzed intriplicate and the mean values ±SEM reported. […] Gliosis Quantitation. […]

7PA2 cells = test: Toxicity observations in 7PA2 cells and LTP controls; format: cell-based, Chinese Hamster; conditions: APPs expression, LTP in CHO-/AZD-103 conditions
Description: as §1

TgCRND8 mice [3] = test: Two-month treatment of TgCRND8 mice, cognition and pathology; format: in vivo, mouse; conditions: TgCRND8 mice treated for 2 months, ending at 7 months of age
Description: Scyllo-inositol was also administered to […]8 mice for 2 months, ending at 7 months of age.

TgCRND8 mice [4] = conditions: mouse, in vivo
Description: as §2

[5] = six month old TgCRND8 mice, 28 days treatment from 5 months
[6] = 28 day course at 5 months of age, vs untreated
[7] = oral, 28 days from 5 months of age, 6 months of age, listed as Scyllo-cyclohexanehexol

T1 sequence (P05067 672-713): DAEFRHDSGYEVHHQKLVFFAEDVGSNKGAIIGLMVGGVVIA

OC1C(O)C(O)C(O)C(O)C1O (stereo not drawn) [scyllo-cyclohexanehexyl, 1,3,5/2,4,6-(scyllo-) cyclohexanehexyl]
probe trial, % time in target quadrant (TgCRND8 mice [1]; separate cohort of treated TgCRND8 mice vs non-Tg littermates): not statistically different from non-Tg littermates | spatial learning performance compared to non-Tg littermates (TgCRND8 mice [1]; [5]): indistinguishable from that of their non-Tg littermates | spatial learning performance compared to untreated TgCRND8 littermates (TgCRND8 mice [1]; [5]): significantly better behavioural performance compared to untreated TgCRND8 mice; also recorded: significantly better than untreated TgCRND8 littermates | Aβ dimer on Western blots (Aβ oligomers; applied to 7PA2 CM (post-cond)): seemed unaffected | Aβ trimer on Western blots (Aβ oligomers; applied to 7PA2 CM (post-cond), 1.25 μM): reduced the detectability of the Aβ trimer | Aβ dimer and trimer levels, dose response by Western blot (Aβ oligomers; pre-cond and post-cond, measured absolutely and normalized to monomer): appeared to reduce dimer and trimer levels | percent area of the brain covered by plaques, reduction (TgCRND8 mice [2]; [6]): 14±0.5% | plaque number reduction (TgCRND8 mice [2]; [6]): 13±0.3% | plaque size reduction (TgCRND8 mice [2]; [6]): 16±0.4% | plaque burden in the hippocampus (TgCRND8 mice [2]; one month of treatment, anti-Aβ antibody staining): lower plaque burden | Mean Plaque Size (TgCRND8 mice [2]; [7]): 336 ± 6* μm^2 | Total Plaque Area (TgCRND8 mice [2]; [7]): 420027 ± 14986* μm^2 | Total Plaque Count (TgCRND8 mice [2]; [7]): 1260 ± 27 | impact on ALCR performance without oligomers (rats; AZD103 administered without oligomers): no impact on performance | Switching % errors (rats; ICV AZD103 alone, baseline = 100): 99% | Switching % errors (rats; ICV Aβ oligomers incubated ex vivo with AZD103, baseline = 100): 95% | Switching % errors (rats; ICV oligomers after 4 days PO 30 mg/kg/day in drinking water): 109% | Switching % errors (rats; ICV oligomers after 4 days PO 100 mg/kg/day in drinking water): 100% | Switching % errors (rats; ICV oligomers after 4 days PO 300 mg/kg/day in drinking water): 109% | Plasma Aβ42 levels (Aβ42): 990 ± 73 pg/mL | toxicity (7PA2 cells): No direct evidence of AZD-103 toxicity | effects on cognition and pathology (TgCRND8 mice [3]): Sustained effects both on cognition and pathology were observed | grooming or activity in the open field test (TgCRND8 mice [4]): no effect on grooming or activity | sensorimotor function, Rotarod (TgCRND8 mice [4]): no difference
